Where two headings read alike, the source gives them in different places.
How the values were obtained:
[1] = tested on: patients with multiple sclerosis; experiment: MS-F203 Phase 3 double-blind placebo-controlled study; assay type: in vivo, human; conditions: 10 mg b.i.d.
Description: A three stage, stepwise analysis based on this variable was used to establish a positive outcome on the primary endpoint and to establish its clinical meaningfulness with respect to overall walking ability. […] The second step was to register a significant improvement in MSWS-12 score for the Timed-Walk Responders when compared to Timed-Walk Non-Responders. The third step was to confirm maintenance of effect by testing whether those patients who responded to 4-aminopyridine-SR on the T25FW would still register a significant improvement in walking speed relative to placebo-treated patients at the last observed double-blind visit (i.e., the change from baseline in walking speed at the double-blind endpoint). FIG. 47 depicts walking speed improvements found in the MS-F203 study: In FIG. 47, the two graphs show the average change in walking speed from baseline at each of the four visits over the 3 months of double blind treatment. […] There was no indication of a loss of efficacy over, e.g., 12 weeks, 13 weeks, 14 weeks, 3 months of treatment in this study. The MS-F203 study established that the improvement in walking speed seen in treated Timed Walk Responders was maintained over, e.g., 12 weeks, 13 weeks, 14 weeks, 3 months of treatment. The enxtention data herein established that periods greater than those of this study were able to be effeicaious, thus as a durable and chronic therapy. […]

[2] = tested on: patients with multiple sclerosis; experiment: Pooled analysis of MS-F202, MS-F203 and MS-F204; assay type: in vivo, human; conditions: Timed-Walk Responders
Protocol: The primary efficacy variable was analyzed by comparing 4-aminopyridine-SR 10 mg b.i.d., the now FDA-approved clinical dose, to placebo with respect to the proportion of patients with consistent improvements in walking speed (Timed-Walk Responders).
A set of post-hoc analyses using a traditional definition of response based on threshold change was performed to provide additional evidence of the robustness of the primary analyses using the Timed-Walk Responder criterion. For these analyses, a patient was defined as a “% Responder” at various thresholds of response (at average increases in walking speed during the treatment period of at least 10%, 20%, etc. up to 60% from baseline). Fisher's Exact test was used to compare 4-aminopyridine to placebo for each study and for the pooled analysis.
DesignAVIethods: All patients from MS-F202, MS-F203 and MS-F204 were included in a pooled analysis. Patients with clinically definite multiple sclerosis were randomized to 4-aminopyridine-SR 10 mg bid or placebo for up to 14 weeks. The primary efficacy variable was defined as a faster walking speed on the Timed 25-Foot Walk (T25FW) for at least 3 of 4 double-blind efficacy visits compared with the maximum walking speed on any of 5 off-treatment visits, and was determined prospectively for MS-F203 and MS-F204 and retrospectively in MS-F202. The average Walking Speed (“WS”) over four baseline and four treatment visits were compared by treatment and TWR status.
All patients from MS-F202, MS-F203 and MS-F204 were included in a pooled analysis. Patients with clinically definite multiple sclerosis were randomized to 4-aminopyridine-SR 10 mg bid or placebo for up to 14 weeks. The primary efficacy variable was defined as a faster walking speed on the Timed 25-Foot Walk (T25FW) for at least 3 of 4 double-blind efficacy visits compared with the maximum walking speed on any of 5 off-treatment visits, and was determined prospectively for MS-F203 and MS-F204 and retrospectively in MS-F202.
Methods: Data for patients who received the therapeutic dose of 4-aminopyridine-SR, 10mg bid, in three randomized controlled trials (MS-F202, MS-F203, and MS-F204) were pooled (n=394) and compared to placebo (n=237). Comparative analyses were based on the percent change from baseline in WS using the timed 25-foot walk. […] The percent change in WS for the pooled populations for each double-blind visit was evaluated by time interval to account for differences in study schedules (Days 1-21, 22-49, 50-77, and 78-end of double-blind phase). The percent changes were analyzed with analysis of variance with effects for treatment group, study, and site within study.

[3] = cited from earlier work; for bioavailability: AUC(0-∞) i.v. vs p.o. 2 mg/kg
[4] = oral, non-sustained release; cited from earlier work
[5] = Bioavailability and pharmacokinetics in healthy volunteers; conditions: 10 mg oral solution

Structure (SMILES): Nc1ccncc1 [4-aminopyridine]
- improvement in walking speed across the treatment period ([1]; Timed Walk Non-responders): approximately 7%
- average increase in walking speed over the treatment period compared to baseline ([1]; Timed Walk Responders): approximately 25%
- double-blind average percent change from baseline in walking speed ([2]; average improvement): 24%
- average increase in walking speed by time from last dose ([2]; dose interval 9-10 hrs): 25%
- average increase in walking speed by time from last dose ([2]; dose interval 10-11 hrs): 24%
- average increase in walking speed by time from last dose ([2]; dose interval 11-12 hrs): 20%
- bioavailability ([3]; female rats): ~55%
- bioavailability ([3]; male rats): approximately 66.5%
- peak plasma concentrations lower in females than in males ([3]; oral administration): 38%
- time of peak plasma concentrations after dosing [4]: ≤ 1 h
- Cmax [5]: 42.7 ng/mL

Source: patent US20170319562A1, “Compositions and Methods for Extended Therapy with Aminopyridines” (Acorda Therapeutics, Inc., priority 2009, published 2017)
